Assay results taken from patent US11274106B2, “Topoisomerase inhibitors with antibacterial and anticancer activity” (THE BOARD OF TRUSTEES OF THE UNIVERSITY OF ILLINOIS, priority 2017, dated 2022).
Converted amounts (≈) assume the structure as drawn. “Also recorded” adds a separate entry of the source. Read-outs that look alike come from different tables or passages of the source.

Experiments:
[1] = test system: MDA-MB-231 triple negative breast cancer cells; assay: Antiproliferative SRB assay, MDA-MB-231; type: cell-based; conditions: SRB assay; for Antiproliferative effect against MDA-MB-231 cells: FIG. 1, 72 hour; for IC50: mean ± SEM
Description: FIG. 1. […] Cell death measured by SRB assay after 72 hour of compound exposure (n≥3 biological replicates, error bars show SEM). IC50 values given as mean±SEM from ≥3 biological replicates.
To investigate the feasibility of developing a class of antitumor antibiotics based upon the DNM scaffold, the ability of the DNM to exert an antiproliferative effect against MDA-MB-231 breast cancer cells was evaluated.

[2] = target: T1, Top2cc (Homo sapiens, UniProt P11388); assay: ICE assay for Top2α-DNA complexes in H460 cells; type: cell-based; conditions: 50 μM
T1 construct: endogenous in cells; host or cells: H460
Excerpt: FIG. 3. DNM derivatives are dual Top1/Top2 inhibitors with different modes of inhibition. (a) Inhibition of decatenating ability of Top2α with increasing concentrations of ETP, 6DNM-NH3, 6DNM-Pyr, and Ph-6DNM-NH3. K, kinetoplast DNA; OC, open circular; R, relaxed. (b) Inhibition of relaxing ability of Top1 with increasing concentrations of CPT, 6DNM-NH3, 6DNM-Pyr, and Ph-6DNM-NH3. R, relaxed; S, supercoiled. (c) Detection of Top2a-DNA using the ICE Assay. Genomic DNA ([…]) of H460 cells treated with drugs (50 μM, 30 min) was applied to nitrocellulose membrane and immunoblotted for Top2a. (d) Detection of Top1-DNA adducts using ICE Assay. Same procedure as (c) using 1 μg of DNA. (e) Inhibition of ETP-induced poisoning of Top2a. H460 cells treated with indicated concentrations of inhibitor for 30 min prior to treatment with ETP (50 μM). Detection of Top2α as in (c).
The in vivo complex of enzyme (ICE) assay can be used to distinguish poisons from catalytic inhibitors. The ICE assay consists of isolating the genomic DNA of cells treated with small molecules in a manner the preserves covalent DNA-protein complexes and applying it to nitrocellulose membranes. Because topoisomerase poisons stabilize the cleavage complexes, DNA-protein complexes can be detected by immunoblotting for specific topoisomerases, whereas catalytic inhibitors produce no such result. To determine if DNM derivatives are acting as poisons or catalytic inhibitors, H460 human lung cells were exposed to 50 μM of the Top2 poison ETP, Ph-6DNM-NH3, 6DNM-NH3, and 6DNM-Pyr and assessed for their ability to stabilize Top2cc. […] In a similar fashion, next investigated was the mode of Top1 inhibition using the ICE assay (FIG. 3b).

[3] = test system: S. aureus; assay: Antibacterial MIC, microbroth dilution, S. aureus; type: cell-based; conditions: for MIC: Staphylococcus aureus
Description: (§1) To investigate this possibility, the antibacterial effects of the DNM derivatives was assessed against strains of E. coli, S. aureus, and MRSA using the microbroth dilution method (Table 2).

[4] = test system: MRSA; assay: Antibacterial MIC, microbroth dilution, MRSA; type: cell-based, S. aureus; conditions: for MIC: Staphylococcus aureus, MRSA, microbroth dilution
Description: as §1

[5] = test system: E. coli; assay: Antibacterial MIC, microbroth dilution, E. coli; type: cell-based; conditions: for MIC: Escherichia coli
Description: as §1

[6] = test system: H460; assay: Antiproliferative SRB assay, H460; type: cell-based; conditions: Homo sapiens, NCI-H460, 72 h, Lung cancer, mean ± SEM
Excerpt: (§2) Topoisomerase inhibitors such as DOX are used as single agent and in combination therapy to treat a wide-range of cancer types.

[7] = test system: HL-60; assay: Cell viability Alamar Blue assay, HL-60; type: cell-based; conditions: Homo sapiens, HL-60, 72 h, Leukemia, mean ± SEM
Excerpt: as §2

[8] = test system: HCT-116; assay: Antiproliferative SRB assay, HCT-116; type: cell-based; conditions: Homo sapiens, HCT-116, 72 h, Colon cancer, mean ± SEM
Excerpt: as §2

[9] = test system: BT-474; assay: Antiproliferative SRB assay, BT-474; type: cell-based; conditions: Homo sapiens, BT-474, 72 h, Breast cancer, mean ± SEM
Excerpt: as §2

[10] = test system: IMR32; assay: Antiproliferative SRB assay, IMR32; type: cell-based; conditions: Homo sapiens, IMR-32, 72 h, Neuroblastoma, mean ± SEM
Excerpt: as §2

[11] = test system: panel of cancer cells; assay: Average over panel of 10 cancer cell lines; type: cell-based; conditions: 72 hour, read-out: Average (mean) IC50 over the cell line panel
Excerpt: as §2

[12] = test system: Jurkat; assay: Cell viability Alamar Blue assay, Jurkat; type: cell-based; conditions: Homo sapiens, 72 h, Leukemia, mean ± SEM
Excerpt: as §2

[13] = test system: HeLa; assay: Antiproliferative SRB assay, HeLa; type: cell-based; conditions: Homo sapiens, 72 h, Ovarian cancer (footnote e), mean ± SEM
Excerpt: as §2

[14] = test system: ES-2; assay: Antiproliferative SRB assay, ES-2; type: cell-based; conditions: Homo sapiens, ES-2, 72 h, Cervical cancer (footnote f), mean ± SEM
Excerpt: as §2

[15] = test system: HOS; assay: Antiproliferative SRB assay, HOS; type: cell-based; conditions: Homo sapiens, 72 h, Osteosarcoma, mean ± SEM
Excerpt: as §2

[16] = Homo sapiens, MDA-MB-231, 72 h, 72 hour compound exposure, read-out: MDA-MB-231 IC50
[17] = 72 hour compound exposure, read-out: MDA-MB-231 IC50

T1 sequence (P11388 whole entry): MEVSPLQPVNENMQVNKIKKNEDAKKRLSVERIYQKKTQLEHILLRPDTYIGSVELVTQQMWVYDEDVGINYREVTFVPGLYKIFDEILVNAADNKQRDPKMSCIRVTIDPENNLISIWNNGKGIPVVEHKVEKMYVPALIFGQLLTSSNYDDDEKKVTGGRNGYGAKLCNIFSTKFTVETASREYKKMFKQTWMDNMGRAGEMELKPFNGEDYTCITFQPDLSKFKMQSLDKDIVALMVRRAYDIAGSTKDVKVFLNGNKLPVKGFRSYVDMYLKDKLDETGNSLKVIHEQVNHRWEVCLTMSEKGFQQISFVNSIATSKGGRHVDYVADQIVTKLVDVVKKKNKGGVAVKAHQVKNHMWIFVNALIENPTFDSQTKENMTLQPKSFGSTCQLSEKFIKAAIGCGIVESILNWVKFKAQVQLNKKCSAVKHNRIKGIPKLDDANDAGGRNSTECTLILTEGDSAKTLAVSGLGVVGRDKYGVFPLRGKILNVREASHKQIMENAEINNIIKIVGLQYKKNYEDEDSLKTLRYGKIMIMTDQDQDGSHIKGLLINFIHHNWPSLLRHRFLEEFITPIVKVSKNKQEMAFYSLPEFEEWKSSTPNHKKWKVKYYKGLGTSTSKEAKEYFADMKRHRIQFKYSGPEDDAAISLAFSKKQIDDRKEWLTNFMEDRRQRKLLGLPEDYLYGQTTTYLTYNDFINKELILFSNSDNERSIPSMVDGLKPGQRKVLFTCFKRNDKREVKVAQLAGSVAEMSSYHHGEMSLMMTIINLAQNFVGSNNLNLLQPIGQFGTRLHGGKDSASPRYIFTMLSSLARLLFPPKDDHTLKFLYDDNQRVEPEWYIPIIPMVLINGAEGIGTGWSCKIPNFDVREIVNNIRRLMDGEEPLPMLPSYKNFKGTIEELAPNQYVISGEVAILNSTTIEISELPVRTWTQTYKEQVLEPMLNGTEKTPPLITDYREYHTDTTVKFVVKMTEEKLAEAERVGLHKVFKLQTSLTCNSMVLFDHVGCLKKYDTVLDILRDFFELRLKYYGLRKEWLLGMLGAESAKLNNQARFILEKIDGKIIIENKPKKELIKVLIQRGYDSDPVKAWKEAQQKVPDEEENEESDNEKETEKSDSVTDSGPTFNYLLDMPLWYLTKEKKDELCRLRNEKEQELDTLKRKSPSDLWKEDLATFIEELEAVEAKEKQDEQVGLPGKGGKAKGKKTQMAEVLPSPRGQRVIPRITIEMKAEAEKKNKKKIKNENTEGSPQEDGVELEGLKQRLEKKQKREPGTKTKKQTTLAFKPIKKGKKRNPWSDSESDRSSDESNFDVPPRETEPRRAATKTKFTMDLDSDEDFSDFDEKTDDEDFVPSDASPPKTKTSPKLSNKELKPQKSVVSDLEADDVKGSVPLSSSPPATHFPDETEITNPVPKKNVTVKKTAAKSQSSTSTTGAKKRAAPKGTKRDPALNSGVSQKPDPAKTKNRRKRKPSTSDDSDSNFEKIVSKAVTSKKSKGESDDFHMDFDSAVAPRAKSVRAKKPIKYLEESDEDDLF

| SMILES | MIC [3] [µg/mL] | MIC [4] [µg/mL] | MIC [5] [µg/mL] | IC50 [1, 16] [nM] | other results |
| --- | --- | --- | --- | --- | --- |
| COc1cc([C@@H]2c3cc4c(cc3[C@@H](O[C@@H]3O[C@@H]5CO[C@@H](C)O[C@H]5[C@H](O)[C@H]3O)[C@H]3COC(=O)[C@H]23)OCO4)cc(OC)c1O [ETP, etoposide, reference compound] | – | – | – | – | Antiproliferative effect against MDA-MB-231 cells [1]: sensitive; Accumulation of Top2cc (ICE assay) [2]: resulted in the accumulation of Top2cc |
| CCOC(=O)C1Oc2c3c(cc4c(C)cc(=O)n1c24)c(C)cc(=O)n3C (centres unmarked) [Compound 3] | > 16 | 0.5 (≈ 1.41 µM) | > 16 | > 10000 | Activity against MRSA [4]: remains effective against MRSA |
| Cc1cc(=O)n(C)c2c3c4c(cc12)c(C)cc(=O)n4CO3 [Compound 1] | 2 (≈ 7.08 µM) | 0.03 (≈ 0.106 µM) | > 16 | 1100 ± 200 | – |
| Cc1cc(=O)[nH]c2c3c4c(cc12)c(C)cc(=O)n4CCO3 [Compound 10] | 4 (≈ 14.2 µM) | – | > 32 | 1600 ± 200 | – |
| Cc1cc(=O)n(C)c2c3c4c(cc12)c(C)cc(=O)n4CCO3 [Compound 2] | 1 (≈ 3.37 µM) | 0.06 (≈ 0.202 µM) | > 16 | 730 ± 90 | Antiproliferative effect against MDA-MB-231 cells ([1]; listed as 6DNM): produces quantitative cell death; also recorded: equipotent to the clinical trial compound vosoraxin |
| Cc1cc(=O)n2c3c(c4c(cc13)c1ccccc1c(=O)n4C)OCC2CN1CCCC1 (centres unmarked) [Compound 22] | 0.25 (≈ 0.602 µM) | – | 1 (≈ 2.41 µM) | 31 ± 3 | IC50 [6]: 7.2 ± 0.6 nM; IC50 [7]: 94 ± 6 nM; IC50 [8]: 23 ± 3 nM; IC50 [9]: 235 ± 1 nM; IC50 [10]: 4.9 ± 0.1 nM; IC50 [11]: 55 nM; IC50 [12]: 69 ± 7 nM; IC50 ([1]; Homo sapiens, MDA-MB-231, 72 h, Breast cancer, read-out: 72 hour IC50, MDA-MB-231): 31 ± 3 nM; IC50 [13]: 46 ± 2 nM; IC50 [14]: 23 ± 4 nM; IC50 [15]: 16 ± 0.4 nM |
| Cc1cc(=O)n2c3c(c4c(cc13)c1ccccc1c(=O)n4C)OCC2CN (centres unmarked) [Compound 16] | – | – | – | – | S. aureus MIC [3]: 1 µg/mL; E. coli MIC [5]: 0.25 µg/mL; IC50 [1, 17]: 30 ± 6 nM |
| Cc1cc(=O)n(C)c2c3c4c(cc12)c(C)cc(=O)n4C(CC(=O)O)CO3 (centres unmarked) [Compound 6] | > 16 | 16 (≈ 45.2 µM) | > 32 | > 10000 | – |
| Cc1cc(=O)n(CCN)c2c3c4c(cc12)c(C)cc(=O)n4CCO3 [Compound 12] | 4 (≈ 12.3 µM) | – | 4 (≈ 12.3 µM) | 220 ± 60 | – |
| Cc1cc(=O)n(C)c2c3c4c(cc12)c(C)cc(=O)n4C(CN)CO3 (centres unmarked) [Compound 18] | – | – | – | – | S. aureus MIC [3]: 0.5 µg/mL; E. coli MIC [5]: 0.25 µg/mL; IC50 [1, 17]: 200 ± 10 nM |
| Cc1cc(=O)n2c3c(c4c(cc13)c1ccccc1c(=O)n4C)OCC2CN (centres unmarked) [Compound 17] | – | – | – | – | S. aureus MIC [3]: 4 µg/mL; E. coli MIC [5]: 2 µg/mL; IC50 [1, 17]: 130 ± 30 nM |
| CC(=O)NCC1COc2c3c(cc4c(C)cc(=O)n1c24)c(C)cc(=O)n3C (centres unmarked) [Compound 8] | 32 (≈ 87.1 µM) | 0.5 (≈ 1.36 µM) | > 16 | > 10000 | – |
